Experimental data from ChEMBL document CHEMBL3297650, “Discovery of novel oxindole derivatives as potent α-glucosidase inhibitors” (Bioorg Med Chem, 2014).

Assay: Inhibition of yeast alpha-glucosidase (unknown origin) using para-nitrophenyl glucopyranoside as substrate preincubated for 10 mins before substrate addition measured after 30 mins by spectrophotometry
Parameters: species or system Saccharomyces cerevisiae

Structure (SMILES)	IC50
COc1ccc(/C=C2/C(=O)Nc3cc(Cl)ccc32)cc1OC	411 µM
O=C1Nc2cc(Cl)ccc2/C1=C\c1ccc(O)c(O)c1	2.71 µM
O=C1Nc2cc(Cl)ccc2/C1=C\c1ccccc1[N+](=O)[O-]	11.4 µM
CCOc1cccc(/C=C2/C(=O)Nc3cc(Cl)ccc32)c1O	37.9 µM
O=C1Nc2cc(Cl)ccc2/C1=C\c1cccc(O)c1	15.2 µM
O=C1Nc2cc(Cl)ccc2/C1=C\c1ccc(O)cc1	24.7 µM
O=C1Nc2cc(Cl)ccc2/C1=C\c1ccc(Cl)cc1Cl	55.6 µM
COc1cccc(/C=C2/C(=O)Nc3cc(Cl)ccc32)c1O	72.2 µM
O=C1Nc2cc(Cl)ccc2/C1=C\c1ccc([N+](=O)[O-])cc1	84.4 µM
CN(C)c1ccc(/C=C2/C(=O)Nc3cc(Cl)ccc32)cc1	91.2 µM
O=C1Nc2cc(Cl)ccc2/C1=C\c1ccccc1	196 µM
COc1ccc(/C=C2/C(=O)Nc3cc(Cl)ccc32)c(OC)c1OC	341 µM
O=C1Nc2cc(Cl)ccc2/C1=C\c1cccc2ccccc12	102 µM
O=Cc1ccc(/C=C2/C(=O)Nc3cc(Cl)ccc32)cc1	110 µM
O=C1Nc2cc(Cl)ccc2/C1=C\c1ccccc1Cl	73.1 µM
CCOc1ccc(/C=C2/C(=O)Nc3cc(Cl)ccc32)cc1	99.7 µM
CSc1ccc(/C=C2/C(=O)Nc3cc(Cl)ccc32)cc1	51.8 µM
COc1ccc(O)c(/C=C2/C(=O)Nc3cc(Cl)ccc32)c1	82.2 µM
COc1ccc(/C=C2/C(=O)Nc3cc(Cl)ccc32)cc1	108 µM
O=C1Nc2cc(Cl)ccc2/C1=C\c1ccco1	173 µM
Cc1ccc(/C=C2/C(=O)Nc3cc(Cl)ccc32)cc1	115 µM
O=C1Nc2cc(Cl)ccc2/C1=C\c1c2ccccc2cc2ccccc12	17.3 µM
O=C1Nc2cc(Cl)ccc2/C1=C\c1c(Cl)cccc1Cl	52.9 µM
CC(C)c1ccc(/C=C2/C(=O)Nc3cc(Cl)ccc32)cc1	14.3 µM
COc1cccc(/C=C2/C(=O)Nc3cc(Cl)ccc32)c1	139 µM
